Source: US12201694B2, “Hydrogel compositions” (Hyderabad Eye Institute, priority 2018, dated 2025)
Converted amounts (≈) assume the structure as drawn.

Tests used:
[1] = physiological pH; well known; cited from earlier work
C. tropicalis ATCC200956 = test: Minimal inhibitory concentration (MIC); type: cell-based, Candida tropicalis; conditions: C. tropicalis ATCC200956 (Amp-B non-sensitive)
Procedure: C. albicans cells, laboratory strain SC5314 or ATCC90028, were cultured on solid BHI (Oxoid) medium at 37° C. for 24 hours and stored at 4° C. for up to one month. Prior to experiments, a colony of C. albicans was sub-cultured into liquid BHI medium overnight at 37° C. […] The concentration of polymer at which there was no visible growth was determined to be the MIC. C.albicans (Robin) ATCC200955, C.tropicalis ATCC200956, A.flavus ATCC16883 and F. keratoplasticum ATCC36031 were similarly cultured on solid Sabrauds (Oxoid) medium at 37° C. for 24 hours and stored at 4° C. for up to one month. Prior to experiments, colonies were sub-cultured into liquid Sabrauds medium overnight at 37° C. All liquid cultures were static apart from A.flavus which was incubated shaking at 100 rpm.

C. albicans ATCC90028 = test: Minimal inhibitory concentration (MIC), no visible growth after 16 h; type: cell-based, Candida albicans
Procedure: (§1) C. albicans cells, laboratory strain SC5314 or ATCC90028, were cultured on solid BHI (Oxoid) medium at 37° C. for 24 hours and stored at 4° C. for up to one month. Prior to experiments, a colony of C. albicans was sub-cultured into liquid BHI medium overnight at 37° C. Overnight cultures of C.albicans were adjusted to an optical density at 600 nm of 0.1 and incubated with Amphotericin polymers, which were serially diluted 1:2 from 2500-2.44 μg/ml, for 16 hours in a 96 well plate. The concentration of polymer at which there was no visible growth was determined to be the MIC. C.albicans (Robin) ATCC200955, C.tropicalis ATCC200956, A.flavus ATCC16883 and F. keratoplasticum ATCC36031 were similarly cultured on solid Sabrauds (Oxoid) medium at 37° C. for 24 hours and stored at 4° C. for up to one month. Prior to experiments, colonies were sub-cultured into liquid Sabrauds medium overnight at 37° C. All liquid cultures were static apart from A.flavus which was incubated shaking at 100 rpm.

C. albicans SC5314 = test: as above; type: cell-based, Candida albicans
Procedure: as §1

[2] = tested on: F. keratoplasticum ATCC36031; test: Minimal inhibitory concentration (MIC); type: cell-based, Fusarium keratoplasticum; conditions: F. keratoplasticum ATCC 36031
Procedure: as §1

C. albicans ATCC200955 = test: Minimal inhibitory concentration (MIC); type: cell-based, Candida albicans; conditions: C. albicans ATCC200955 (Amp-B non-sensitive)
Procedure: as §1

A. flavus ATCC16883 = test: Minimal inhibitory concentration (MIC); type: cell-based, Aspergillus flavus; conditions: A. flavus ATCC 16883
Procedure: as §1

[3] = literature reference [19]; cited from earlier work
[4] = from weight MIC and molar density

C[C@@H]1[C@H](O)[C@@H](C)/C=C/C=C/C=C/C=C/C=C/C=C/C=C/[C@H](O[C@@H]2O[C@H](C)[C@@H](O)[C@H](N)[C@@H]2O)C[C@@H]2O[C@](O)(C[C@@H](O)C[C@@H](O)[C@H](O)CC[C@@H](O)C[C@@H](O)CC(=O)O[C@H]1C)C[C@H](O)[C@H]2C(=O)O [Amphotericin B]
solubility in water and saline solution [1]: insoluble
Weight based MIC (C. tropicalis ATCC200956): >2500 µg·mL
Weight based MIC (C. albicans ATCC90028; C. albicans ATCC90028): 0.5 µg·mL
MIC against ATCC90028 (C. albicans ATCC90028; C. albicans ATCC90028, 16 hours): 4 µg/mL (≈ 4.33 µM)
Molar MIC (C. albicans ATCC90028; C. albicans ATCC90028, from weight MIC and molar density): 4800 µM
Weight based MIC (C. albicans SC5314; C. albicans SC5314): 0.4 µg·mL
MIC against SC5314 (C. albicans SC5314; C. albicans SC5314, 16 hours): 0.4 µg/mL (≈ 0.433 µM)
Molar MIC (C. albicans SC5314; C. albicans SC5314, from weight MIC and molar density): 500 µM
Weight based MIC [2]: 0.2 µg·mL
Molar MIC [2, 4]: 250 µM
Weight based MIC (C. albicans ATCC200955): >2500 µg·mL
Weight based MIC (A. flavus ATCC16883): 1.5 µg·mL
Molar MIC (A. flavus ATCC16883; [4]): 1800 µM
MIC for amphotericin B [3]: 4.68 to 150 µM
